Laboratory results taken from ChEMBL document CHEMBL3046559, “Sterile oat (Avena sterilis L.) cross-resistance profile to ACCase-inhibiting herbicides in Greece” (2012).

What was measured:
Assay type in all cases: functional
Avena sterilis [1] = test: Herbicidal activity against Avena sterilis accession P12 assessed as weed survival at 1 times field recommended herbicide dose
Avena sterilis [2] = test: Herbicidal activity against Avena sterilis accession P06S assessed as weed survival at 1/32 times field recommended herbicide dose
Avena sterilis [3] = test: Herbicidal activity against Avena sterilis accession P11 assessed as induction of weed mortality
Avena sterilis [4] = test: Herbicidal activity against Avena sterilis accession P12 assessed as induction of weed mortality
Avena sterilis [5] = test: Resistance index, ratio of GR50 for Avena sterilis accession P21S to GR50 for Avena sterilis accession P10S
Avena sterilis [6] = test: Resistance index, ratio of GR50 for Avena sterilis accession P13S to GR50 for Avena sterilis accession P10S
Avena sterilis [7] = test: Resistance index, ratio of GR50 for Avena sterilis accession P19S to GR50 for Avena sterilis accession P10S
Avena sterilis [8] = test: Resistance index, ratio of GR50 for Avena sterilis accession P06S to GR50 for Avena sterilis accession P10S
Avena sterilis [9] = test: Resistance index, ratio of GR50 for Avena sterilis accession P22 to GR50 for Avena sterilis accession P10S
Avena sterilis [10] = test: Resistance index, ratio of GR50 for Avena sterilis accession P18 to GR50 for Avena sterilis accession P10S
Avena sterilis [11] = test: Resistance index, ratio of GR50 for Avena sterilis accession P20 to GR50 for Avena sterilis accession P10S
Avena sterilis [12] = test: Resistance index, ratio of GR50 for Avena sterilis accession P17 to GR50 for Avena sterilis accession P10S
Avena sterilis [13] = test: Resistance index, ratio of GR50 for Avena sterilis accession P16 to GR50 for Avena sterilis accession P10S
Avena sterilis [14] = test: Resistance index, ratio of GR50 for Avena sterilis accession P15 to GR50 for Avena sterilis accession P10S
Avena sterilis [15] = test: Resistance index, ratio of GR50 for Avena sterilis accession P12 to GR50 for Avena sterilis accession P10S
Avena sterilis [16] = test: Herbicidal activity against Avena sterilis accession P16 assessed as weed survival at 8 times field recommended herbicide dose
Avena sterilis [17] = test: Resistance index, ratio of GR50 for Avena sterilis accession P14 to GR50 for Avena sterilis accession P10S
Avena sterilis [18] = test: Resistance index, ratio of GR50 for Avena sterilis accession P11 to GR50 for Avena sterilis accession P10S
Avena sterilis [19] = test: Resistance index, ratio of GR50 for Avena sterilis accession P09 to GR50 for Avena sterilis accession P10S
Avena sterilis [20] = test: Resistance index, ratio of GR50 for Avena sterilis accession P08 to GR50 for Avena sterilis accession P10S
Avena sterilis [21] = test: Resistance index, ratio of GR50 for Avena sterilis accession P05 to GR50 for Avena sterilis accession P10S
Avena sterilis [22] = test: Resistance index, ratio of GR50 for Avena sterilis accession P04 to GR50 for Avena sterilis accession P10S
Avena sterilis [23] = test: Resistance index, ratio of GR50 for Avena sterilis accession P03 to GR50 for Avena sterilis accession P10S
Avena sterilis [24] = test: Resistance index, ratio of GR50 for Avena sterilis accession P02 to GR50 for Avena sterilis accession P10S
Avena sterilis [25] = test: Resistance index, ratio of GR50 for Avena sterilis accession P01 to GR50 for Avena sterilis accession P10S
Avena sterilis [26] = test: Herbicidal activity against Avena sterilis accession P08 assessed as weed survival at 16 times field recommended herbicide dose
Avena sterilis [27] = test: Resistance index, ratio of GR50 for Avena sterilis accession P07 to GR50 for Avena sterilis accession P10S

C#CCOC(=O)[C@@H](C)Oc1ccc(Oc2ncc(Cl)cc2F)cc1 [CLODINAFOP PROPARGYL]
Survival (Avena sterilis [1]): 100% | Survival (Avena sterilis [2]): 100% | GR50 (Avena sterilis [3]): >1312 gAi/ha | GR50 (Avena sterilis [4]): >1312 gAi/ha | Ratio (Avena sterilis [5]): 1.4 | Ratio (Avena sterilis [6]): 0.6 | Ratio (Avena sterilis [7]): 3.6 | Ratio (Avena sterilis [8]): 1.1 | Ratio (Avena sterilis [9]): 15 | Ratio (Avena sterilis [10]): 64 | Ratio (Avena sterilis [11]): 63 | Ratio (Avena sterilis [12]): 35 | Ratio (Avena sterilis [13]): 21 | Ratio (Avena sterilis [14]): >164 | Ratio (Avena sterilis [15]): >164 | Survival (Avena sterilis [16]): 20% | Ratio (Avena sterilis [17]): 150 | Ratio (Avena sterilis [18]): >164 | Ratio (Avena sterilis [19]): 6 | Ratio (Avena sterilis [20]): >164 | Ratio (Avena sterilis [21]): 22 | Ratio (Avena sterilis [22]): >164 | Ratio (Avena sterilis [23]): >164 | Ratio (Avena sterilis [24]): >164 | Ratio (Avena sterilis [25]): 130 | Survival (Avena sterilis [26]): 73%

COC(=O)C(C)Oc1ccc(Oc2ccc(Cl)cc2Cl)cc1 (centres undefined) [DICLOFOP-METHYL]
Survival (Avena sterilis [1]): 80% | Survival (Avena sterilis [2]): 100% | GR50 (Avena sterilis [3]): >22740 gAi/ha | GR50 (Avena sterilis [4]): >22740 gAi/ha | Ratio (Avena sterilis [5]): 0.8 | Ratio (Avena sterilis [6]): 1 | Ratio (Avena sterilis [7]): 0.9 | Ratio (Avena sterilis [8]): 1.1 | Ratio (Avena sterilis [9]): 8 | Ratio (Avena sterilis [10]): 20 | Ratio (Avena sterilis [11]): >50 | Ratio (Avena sterilis [12]): 17 | Ratio (Avena sterilis [13]): 11 | Ratio (Avena sterilis [14]): >50 | Ratio (Avena sterilis [15]): >50 | Survival (Avena sterilis [16]): 53% | Ratio (Avena sterilis [17]): 22 | Ratio (Avena sterilis [18]): >50 | Ratio (Avena sterilis [19]): 28 | Ratio (Avena sterilis [20]): 22 | Ratio (Avena sterilis [21]): 10 | Ratio (Avena sterilis [27]): 7 | Ratio (Avena sterilis [22]): 28 | Ratio (Avena sterilis [23]): 26 | Ratio (Avena sterilis [24]): >50 | Ratio (Avena sterilis [25]): 43 | Survival (Avena sterilis [26]): 53%

CCOC(=O)[C@@H](C)Oc1ccc(Oc2nc3ccc(Cl)cc3o2)cc1 [FENOXAPROP-P-ETHYL]
Survival (Avena sterilis [1]): 100% | Survival (Avena sterilis [2]): 97% | GR50 (Avena sterilis [3]): 2261 gAi/ha | GR50 (Avena sterilis [4]): 1290 gAi/ha | Ratio (Avena sterilis [5]): 1.2 | Ratio (Avena sterilis [6]): 1.1 | Ratio (Avena sterilis [7]): 1.9 | Ratio (Avena sterilis [8]): 1.1 | Ratio (Avena sterilis [9]): 16 | Ratio (Avena sterilis [10]): >165 | Ratio (Avena sterilis [11]): >165 | Ratio (Avena sterilis [12]): 19 | Ratio (Avena sterilis [13]): 32 | Ratio (Avena sterilis [14]): 92 | Ratio (Avena sterilis [15]): 83 | Survival (Avena sterilis [16]): 20% | Ratio (Avena sterilis [17]): 10 | Ratio (Avena sterilis [18]): 145 | Ratio (Avena sterilis [19]): 136 | Ratio (Avena sterilis [20]): 55 | Ratio (Avena sterilis [21]): 12 | Ratio (Avena sterilis [27]): >165 | Ratio (Avena sterilis [22]): 59 | Ratio (Avena sterilis [23]): 55 | Ratio (Avena sterilis [24]): 133 | Ratio (Avena sterilis [25]): 38 | Survival (Avena sterilis [26]): 30%

COCc1cnc(C2=NC(C)(C(C)C)C(=O)N2)c(C(=O)O)c1 (centres undefined) [IMAZAMOX]
Survival (Avena sterilis [1]): 0% | Survival (Avena sterilis [2]): 97% | GR50 (Avena sterilis [3]): <50 gAi/ha | GR50 (Avena sterilis [4]): <50 gAi/ha | Survival (Avena sterilis [16]): 0% | Survival (Avena sterilis [26]): 0%

CCc1cc(C)cc(CC)c1-c1c(OC(=O)C(C)(C)C)n2n(c1=O)CCOCC2 [PINOXADEN]
Survival (Avena sterilis [1]): 0% | Survival (Avena sterilis [2]): 97% | GR50 (Avena sterilis [3]): <40 gAi/ha | GR50 (Avena sterilis [4]): <40 gAi/ha | Ratio (Avena sterilis [5]): 1.4 | Ratio (Avena sterilis [6]): 1 | Ratio (Avena sterilis [7]): 1.6 | Ratio (Avena sterilis [8]): 0.9 | Ratio (Avena sterilis [11]): 10 | Survival (Avena sterilis [16]): 0% | Ratio (Avena sterilis [22]): 18 | Survival (Avena sterilis [26]): 0%

CCO/N=C(\CC)C1=C(O)CC(c2c(C)cc(C)cc2C)CC1=O (centres undefined) [TRALKOXYDIM]
Survival (Avena sterilis [1]): 13% | Survival (Avena sterilis [2]): 80% | GR50 (Avena sterilis [3]): <400 gAi/ha | GR50 (Avena sterilis [4]): <400 gAi/ha | Ratio (Avena sterilis [5]): 3 | Ratio (Avena sterilis [6]): 1 | Ratio (Avena sterilis [7]): 0.4 | Ratio (Avena sterilis [8]): 1 | Ratio (Avena sterilis [9]): 15 | Ratio (Avena sterilis [11]): 102 | Ratio (Avena sterilis [12]): 14 | Ratio (Avena sterilis [13]): 32 | Ratio (Avena sterilis [14]): 26 | Survival (Avena sterilis [16]): 17% | Ratio (Avena sterilis [19]): 19 | Ratio (Avena sterilis [20]): 27 | Ratio (Avena sterilis [22]): 266 | Ratio (Avena sterilis [23]): 55 | Ratio (Avena sterilis [24]): 38 | Ratio (Avena sterilis [25]): 27 | Survival (Avena sterilis [26]): 0%
